For one assay, the system named is STZ diabetes model rat. In words: Blood sugar decrease effect on STZ diabetes model rat. Format: in vivo. The protocol: GLP-1 (1-37) (80 μg/head) or PBS was intraperitoneally administered to a Wistar male rat once a day over a ten-day period from day 2-12 after birth. On the 7th day of the administration (9-day old), 75 mg/kg of STZ was subcutaneously administered to induce diabetes. In order to prepare normal controls, some PBS-administered rats were administered citrate buffer instead of STZ. Subsequently, the rats were allowed to ingest feed and water freely. In the 42nd day, blood of each rat was drawn from the tail vein and the blood sugar level was measured. The measurement of the blood sugar level was performed using the whole blood sample by the glucose oxidase method in accordance with a general method.

For a further assay, the system named is diabetes model mouse. Briefly: Transplanting cultured jejunum into STZ diabetes model mouse, blood sugar level. It is filed as in vivo. The protocol: (§1) The jejunum collected from a 14.5-day embryonal mouse was embedded in type I collagen gel (Nitta Gelatin Inc.) and was then grown in organ culture in the presence of 50 nM GLP-1(1-37) and 50 nM PDGF (Platelet Derived Growth Factor). The amount of insulin in the culture medium was determined using a mouse insulin-detecting kit (Shibayagi) according to the attached protocol.
The jejunum at the second day from the start of the organ culture was transplanted in the abdominal cavity of a diabetes model mouse. The mouse was changed to a type I diabetes model by the administration of 200 mg/kg streptozotocin (hereinafter, referred to as “STZ”) three days before the transplantation, and the blood sugar level of the mouse was 300 to 350 mg/dl. Similarly, jejunal cells cultured in the absence of GLP-1 (1-37) were transplanted into a diabetes model mouse.

For assay [1], the system named is pancreas, stomach, liver, and duodenal cells. Briefly: Primary culture of embryonal mouse pancreas, stomach, liver and duodenal cells, double stain with antibodies to insulin and glucagon. It is filed as cell-based. The note with it: 10 nmol/l, cultured 8 days. Here is the method:
(§2) Cells originating from various kinds of tissues of a 17.5 day-old embryonal mouse were divided into a group added with GLP-1(1-37) (10 nmol/l) or GLP-1(7-37) (10 nmol/l) and a non-addition control group, and were then cultured. After the cells had been cultured for 8 days, a double stain was performed using antibodies to insulin and glucagon. Specifically, the process was performed as follows.
(§3) Specimens of pancreas, liver, stomach, duodenum, and small intestine (including the jejunum, ileum, and colon) tissues were collected from a 17.5 day-old C57BL/6 embryonal mouse under a microscope. Then, those tissues were immersed in a Hanks solution (Hanks Balanced Solution, Gibco BRL, Co., Ltd., without containing Ca) containing 5 mM of CaCl2 (pH 7.4) and 0.1% of collagenase, and were then incubated at 37° C. for 10 to 20 minutes, followed by gently pipetting for digestion, respectively.
The obtained cells were washed with a culture medium and then inoculated in a 6-well plate for tissue culture at a cell density of 5×10^4 cells/cm^2. After 24 hours from the start of the culture, GLP-1(1-37) or GLP-1(7-37) was added to the culture. […]

In assay [2] the test system is cultured intestinal cells. In words: RT-PCR gene expression in organ culture of jejunum, concentration-dependent effects. It is filed as cell-based, mouse. The note with it: 8 days. Here is the method:
Using a quantitative PCR method, the effects of GLP-1(1-37) on the cultured intestinal cells were analyzed in detail as described below.
Four concentrations of GLP-1(1-37), 0, 5, 10, and 50 nmol/l, were prepared and the organ culture of jejunum was performed by the same way as that of Example 3. After the jejunum had been cultured for 8 days, analyzed using the RT-PCR were the expression amounts of insulin genes (preproinsulin I and preproinsulin II), transcription factor group [neurogenin 3 (ngn3), neuroD/BETA 2, pax-4, Nkx 6.1, and hepatocyte nuclear factor 6 (HNF-6)] that controls the differentiation of secretory cells in the pancreas, a GLP-1 receptor (GLP-1 R), preproglucagon, pancreas duodenal homobox 1 (pdx-1), and hypoxanthine phosphoribosyl transferase (HPRT) as a positive control.
The RT-PCR was performed according to the method described in the literature (Hepatology, 32: 1230-1239) using primers. The primers used herein were as follows.
GLP-1R (SEQ ID NOS: 3 and 4), preproinsulin 1 (SEQ ID NOS: 5 and 6), preproinsulin II (SEQ ID NOS: 7 and 8), preproglucagon (SEQ ID NOS: 9 and 10), pdx-1 (SEQ ID NOS: 11 and 12), ngn3 (SEQ ID NOS: 13 and 14), neuroD (SEQ ID NOS: 15 and 16), pax-4 (SEQ ID NOS: 17 and 18), Nkx 6.1 (SEQ ID NOS: 19 and 20), HNF-6 (SEQ ID NOS: 21 and 22), and HPRT (SEQ ID NOS: 23 and 24).

In the next assay the test system is jejunum. Briefly: Organ culture of embryonal mouse jejunum, insulin in the culture medium. It is filed as cell-based. The note with it: 50 nM GLP-1(1-37) with 50 nM PDGF, jejunum of 14.5-day embryonal mouse in collagen gel. The protocol:
as §1

The conditions of assay [3]: background art; cited from earlier work.
Assay [4] relates to intestinal epithelium cells. Briefly: In vivo GLP-1(1-37) administration to pregnant mouse, insulin/glucagon immunostain of newborn intestine sections. The following applies: 10 nmol i.p. to pregnant mouse daily, embryonal day 10.5 to 17.5. Here is the method:
GLP-1(1-37) (10 nmol) was intraperitoneally injected to a pregnant mouse at the same time every day over a seven-day embryonal period from day 10.5 to 17.5. After birth, tissue sections from the small and large intestine of a newborn mouse were double-stained using antibodies to insulin and glucagon. Specifically, the double stain was performed as follows.
Each tissue of the small intestine (including jejunum and ileum) and the large intestine was immersed overnight in a 4% paraformaldehyde-phosphate buffer at 4° C., followed by embedding in O.C.T. compound to prepare section samples. The section samples were dried and fixed with acetone. Subsequently, the section samples were dried overnight at −20° C. and then washed with PBS-Tween 20, followed by immersing in 0.2% Triton X100 for 1 hour. After that, using anti-insulin goat antibody (Santa Cruz) or anti-glucagon mouse antibody (Sigma), and Alexa 488-binding anti-goat IgG donkey antibody or Cy3-binding anti-mouse IgG donkey antibody, the immunostain of insulin and glucagon was carried out, respectively.

A further assay has as its system intestinal cells. Briefly: Primary culture of embryonal mouse intestinal cells, double stain with antibodies to insulin and glucagon. The following applies: 10 nmol/l, cultured 8 days; for generation of insulin-positive cells in intestinal cells: 17.5 day-old embryonal mouse cells. It is filed as cell-based. The protocol: as §2, §3
The obtained cells were washed with a culture medium and then inoculated in a 6-well plate for tissue culture at a cell density of 5×10^4 cells/cm^2. After 24 hours from the start of the culture, GLP-1(1-37) or GLP-1(7-37) was added to the culture. Furthermore, after the cells had been continuously cultured for 8 days, the cells were washed three times with phosphate buffer (hereinafter, referred to as “PBS”) and then fixed by immersing in a 4% paraformaldehyde-phosphate buffer for 5 minutes and a 25% acetone/methanol solution for 1 minute. It should be noted that GLP-1(1-37) and GLP-1(7-37) were purchased from SIGMA.
Subsequently, each well was washed with 0.05% Tween 20/PBS, followed by immersing in 0.2% Triton X100 for 1 hour. After that, anti-insulin goat antibody (Santa Cruz) and anti-glucagon mouse antibody (Sigma) were added to each well, and the whole was incubated at 4° C. for 16 hours, followed by washing the well. Then, Alexa 488-binding anti-goat IgG donkey antibody (Molecular Probes) or Cy3-binding anti-mouse IgG donkey antibody (Jackson Immuno Research Laboratories Inc.) was added to each well, and the whole was then incubated at 4° C. for 4 hours. […]

Another assay concerns jejunal cells. Briefly: Comparison between GLP-1 and other growth factors, RT-PCR in jejunal cells. It is filed as cell-based, mouse. The following applies: GLP-1(1-37) 10 nm/l with activin A, beta cellulin, HGF, EGF; 8 days. The protocol: In the presence or absence of GLP-1(1-37) (10 nm/l), jejunal cells were cultured by the same way as that of paragraph <1>, except that activin A, beta cellulin, hepatocyte growth factor (HGF), and epidermal growth factor (EGF), which had been reported to control the growth and differentiation of secretory cells in the pancreas, were added. Then, the expression amounts of various kinds of genes were analyzed (a culture period of 8 days).

The subject of assay [5] is preproinsulin I and preproinsulin II mRNA. Briefly: Insulin gene expression in organs of GLP-1(1-37)-administered STZ diabetes model rat (RT-PCR). Format: in vivo. The following applies: 80 μg/head i.p. once a day for ten days, 42nd day. The protocol:
GLP-1(1-37) was confirmed to have the blood sugar decrease effect, so that the presence or absence of insulin production in the intestine of the GLP-1(1-37) administered group was determined by the method described below. GLP-1(1-37)(80 μg/head) or PBS was intraperitoneally administered to each of 6 Wistar male rats once a day over a ten-day […] period from day 2 to 12. On the 7th day of the administration (9-day old), 75 mg/kg of STZ was subcutaneously administered to induce diabetes. In order to prepare normal controls, some PBS-administered rats were administered citrate buffer instead of STZ. Subsequently, the rats were allowed to ingest feed and water freely. On the 42nd day, autopsy was performed to collect the pancreas, stomach, intestine, and lung. After RNA was prepared from each organ using ISOGEN (NIPPONGENE), mRNA of preproinsulin I and mRNA of preproinsulin II were quantified by the RT-PCR method. Oligonuculeotides shown in SEQ ID NOS: 24 and 25 were used for preproinsulin I, and oligonuculeotides shown in SEQ ID NOS: 26 and […] were used for preproinsulin II as PCR primers.

Another assay has as its system GLP-1R. In words: Experiment of inhibiting GLP-1 function with exendin (9-39), RT-PCR in jejunal cells. Format: cell-based, mouse. The following applies: 8 days. Here is the method: Jejunal cells were cultured by the same way as that of paragraph <1>, except that 0, 10, 100, or 1,000 nmol/l of exendin (9-39), which was a GLP-1R antagonist, was simultaneously added together with GLP-1(1-37) (10 nmol/l). Then, the expression amounts of the insulin gene and other various kinds of genes were analyzed (a culture period of 8 days).

Where [6] appears, read: STZ mouse transplanted with jejunal cells treated with GLP-1(1-37), baseline 300 to 350 mg/dl.

Entries after “also recorded” stand apart in the source; their conditions may differ.

“GLP-1(1-37): 37-amino acid peptide having the amino acid sequence from position 92 to position 128 of a preproglucagon peptide; purchased from SIGMA (HDEFERHAEGTFTSDVSSYLEGQAAKEFIAWLVKGRG; Glucagon-like peptide 1; UniProt P01275 92-128, looked up, fragment)”: in the assay with STZ diabetes model rat (80 μg/head i.p. once a day for ten days, 42nd day), the “blood sugar level compared to diabetes control group” value was “decreased significantly”. In addition, in the assay on STZ diabetes model rat (80 μg/head i.p. once a day, day 2-12 after birth, STZ 75 mg/kg s.c., measured 42nd day, n = 6), the blood sugar level is listed as 430 ± 89 ^##. Further, in the assay on diabetes model mouse (STZ mouse (300 to 350 mg/dl) transplanted with jejunal cells treated with GLP-1(1-37)), the “change of blood sugar level after transplantation” value is “decrease in blood sugar level was observed”. Besides, in the assay on diabetes model mouse (setting [6]), the “blood sugar level after eight weeks from the transplantation” value is 75 to 100 mg/dL and the “blood sugar level after four weeks from the transplantation” value was in the range of 125 to 225 mg/dL. The “number of insulin-positive cells and glucagon-positive cells versus non-addition group” value in assay [1] is “no difference”. In [2] (0, 5, 10, 50 nmol/l), the “expression of GLP-1R, preproglucagon and pdx-1 versus non addition group” value is recorded as “no change in expression”; the “expression of transcription factor group controlling differentiation of secretory cells in the pancreas” value was “increase in expression”. Besides, the “expression of the insulin gene (preproinsulin I, preproinsulin II)” value in assay [2] (5 nmol/l, FIG. 1) was “expression of the insulin gene was observed”. In addition, in the assay with jejunum, the “insulin secretion into the culture medium” value is “insulin secretion was observed”. For the same substance, the activity as incretin result in [3] is listed as “weak activity”. Also, in assay [4], the “insulin-positive intestinal epithelium cells in small and large intestine of newborn mouse” value is given as “many insulin-positive intestinal epithelium cells were observed”; the “number of insulin positive cells, small intestine compared with large intestine” value is listed as “higher”. In the assay on intestinal cells, the “glucagon staining of the insulin-positive cells” value is “strongly glucagon-positive” and the “generation of insulin-positive cells in intestinal cells” value is given as “insulin-positive cells were only observed; also recorded: effects on the induction”. Moreover, in the assay with jejunal cells, the “expression of preproglucagon and pdx-1” value was “no change”; the “expression of preproinsulin I, preproinsulin II, and ngn3” value is “high expression”. In assay [5], the “expression of preproinsulin genes in the pancreas, stomach, and lung” value is listed as “no expression was observed”; the “expressions of preproinsulin I gene and preproinsulin II gene in the intestine” value is “significantly increased”.
Take exendin (9-39): in the assay with GLP-1R (exendin (9-39) 10, 100 or 1,000 nmol/l added together with GLP-1(1-37) 10 nmol/l), the “expression of preproinsulin I, preproinsulin II, and ngn3” value is reported as “hardly observed”. Besides, the “expression of preproglucagon and pdx-1” value with GLP-1R (exendin (9-39) added together with GLP-1(1-37) 10 nmol/l) is listed as “not influenced”.
As to “GLP-1(7-37) (HAEGTFTSDVSSYLEGQAAKEFIAWLVKGRG; Glucagon-like peptide 1; UniProt P01275 98-128, looked up, fragment) [reference compound]”, in assay [1], the “number of insulin-positive cells and glucagon-positive cells versus non-addition group” value is “no difference”. Also, the “generation of insulin-positive cells in intestinal cells” value with intestinal cells is “can not effect on the induction”.

The record behind these values is patent US7423019B2, “Agent for inducing conversion of intestinal cells into insulin-producing cells and antidiabetic drug” (Ajinomoto Co., Inc., priority 2003, dated 2008).
